Experimental data published in patent US20050239152A1, “Continuous-flow enzyme assay” (Kiadis B.V., priority 2002, published 2005).

Tests used:
[1] = biological target: T1, Cathepsin B (E.C. 3.4.22.1, from bovine spleen) (Bos taurus, UniProt P07688); test: LC-continuous-flow (LC-CF) ESI-TOF-MS cathepsin B assay, substrate Z-FR-AMC; settings: LC-CF system, FIG. 8; mixture injected, E64 40 μM, CA-074 90 μM
Protocol: For the HPLC screening, solutions were prepared as described herein-above and filled in superloops. Used concentrations were 30 nM cathepsin B and 6 μM internal standard 1, and 50 μM Z-FR-AMC and 6 μM internal standard 2, for superloop 1 and superloop 2, respectively. Injected inhibitors: E64 and CA074, which were in mixture injected (E64: 40 μM; CA-074: 90 μM). […] Compounds injected via an autoinjector were separated by the LC-column, using a binary gradient system consisting of carrier solution and methanol. In order to reduce the amount of methanol that was necessary for separation, a makeup solution was added to the column effluent, resulting in a constant methanol concentration of 10%. Decreasing the concentration of methanol was necessary to prevent enzyme degradation. […] In the LC-CF system, both the enzyme solution and the substrate solution were delivered at a flow rate of 50 μL/min, resulting in a total flow rate of 100 μL/min into the mass spectrometer.
The RP-separation was performed by a binary gradient system, using water and methanol. The organic modifier, however, decreases the activity of enzymes. For this reason, a makeup flow was added after the LC-column (see FIG. 5) to reduce the concentration of methanol. […] This flow was used as the carrier solvent that was pumped into the continuous-flow system. […]

[2] = biological target: T1, Cathepsin B (E.C. 3.4.22.1, from bovine spleen); settings: FI-CF system, FIG. 7; antipain compared with E64
Protocol: The enzymatic assay was performed in a continuous-flow ESI-TOF-MS system where the enzyme cathepsin B and the substrate Z-FR-AMC were subsequently added to the carrier solution of a flow injection system simulating the effluent of an LC column. As a consequence, cathepsin B was continuously incubated with Z-FR-AMC, resulting in a continuous supply of converted substrate. The product was pumped into the mass spectrometer and monitored. Various compounds were injected into the continuous-flow system, incubated with the enzyme in a reaction coil and subsequently pumped into the mass spectrometer. […]
More in detail, samples were analyzed by two different continuous-flow (CF) systems, which both consisted of a homogeneous bioassay coupled to a Micromass (Wythenshawe, UK) Q-Tof micro mass spectrometer. […] The amount of formed product was determined by MS, which was equipped with a Micromass Z-spray electrospray ionization (ESI) source. […]
Carrier solution (20 μL/min) was mixed continuously with cathepsin B solution (10 μL/min) in reaction coil A for 40 sec, and carrier/cathepsin B solution with Z-FR-AMC solution (30 μL/min) in reaction coil B for 45 sec. The resulting flow (40 μL/min) coming out of reaction coil B was pumped into the mass spectrometer, where the amount of formed product was directly monitored by ESI-TOF-MS. […]

CC(C)C[C@H](NC(=O)[C@H]1O[C@@H]1C(=O)O)C(=O)NCCCCN=C(N)N (relative stereo) [E64, trans-epoxysuccinyl-L-leucylamido-(4-guanidino)butane]
negative peak in product mass trace after LC separation [1]: caused by inhibition | injected concentration giving more or less the same area of negative peaks [2]: 0.50 µM
